The conditions of data set [1]: cited from earlier work.
For data set [2], the system named is Alternanthera tenella (ALRTE). Kind of data set: Field weed control efficacy on ALRTE. It counts as in vivo. Conditions: 200 g a.e./ha, ALRTE at BBCH 14-16 at application. The source says: (§1) The different forms of benazolin were applied to weed plants in the greenhouse or in the field at the growth stage indicated for the different weed species hereinafter. The trials in the greenhouse were sprayed with an application volume of 300 L/ha with an automated track sprayer. The plots in the field were sprayed with an application volume of 140 L/ha with a hand held spray boom. Twenty-one days after application (21 DAA) or twenty-eight days after application (28 DAA) the different weed species were visually rated on a percentage scale in relation to the untreated control (100%=all plants dead; 50%=green plant biomass reduced by 50%, and 0%=no discernible difference=like control plot). The growth stages of the different weed species are indicated according to the BBCH monograph “Growth stages of mono- and dicotyledonous plants”, 2nd edition, 2001, ed. Uwe Meier, Federal Biological Research Centre for Agriculture and Forestry (Biologische Bundesanstalt für Land and Forstwirtschaft).

Data set [3] relates to Amaranthus retroflexus (AMARE). The data set can be described thus: Greenhouse weed control efficacy on AMARE. The data set is classed as in vivo. Conditions: for % Control compared to untreated AMARE plants 21 DAA: 100 g a.e./ha, AMARE at BBCH 16-19 at application, visual rating 21 DAA; for % Control compared to untreated plants 21 DAA AMARE: BBCH 16-19, 21 DAA.
Source text: as §1

The subject of data set [4] is Euphorbia heterophylla (EPHHL). The data set can be described thus: Field weed control efficacy on EPHHL. The data set is classed as in vivo. As to conditions: 200 g a.e./ha, EPHHL at BBCH 16-17 at application.
Source text: as §1

Data set [5] has as its system Portulaca oleracea (POROL). The data set can be described thus: Field weed control efficacy on POROL. Conditions: 200 g a.e./ha, POROL at BBCH 21-22 at application. It counts as in vivo.
Source text: as §1

Data set [6] has as its system Chenopodium album (CHEAL). Kind of data set: Greenhouse weed control efficacy on CHEAL. As to conditions: BBCH 15-24, 21 DAA. It counts as in vivo.
Source text: as §1

Data set [7] can be described thus: Formulation compatibility: crystal formation after low temperature storage, mixing with dicamba (Clarity). The data set is classed as physicochemical. Conditions: benazolin salt SL10 mixed with Clarity, ratio 2:1 (a.e., w/w), 5° C. for 2 days. The procedure:
(§2) Here simple mixing experiments were performed with soluble liquid SL 10 formulations of benazolin salts containing […] a.e. of benazolin (see General procedure 51 above) containing no surfactant and commercially available dicamba and glyphosate formulations.
(§3) Formulation compatibility (solubility, miscibility and storability) tests of different benazolin salt SL 10 formulations in mixture with commercial formulations of herbicides such as dicamba or glyphosate were performed.
In a first experiment, Clarity® (a commercial formulation of dicamba) was tank mixed with the respective benazolin salt SL 10 formulation in a 2:1 ratio by weight (w/w) based on the respective a.e. contents (in Table B5a referred to as “Ratio”) and the vial placed at 5° C. for 2 days.

Data set [8] can be described thus: Formulation compatibility: crystal formation after low temperature storage, mixing with glyphosate (Roundup Weathermax). It counts as physicochemical. Conditions: benazolin salt SL10 mixed with Roundup Weathermax, ratio 4:1 (a.e., w/w), 5° C. for 2 days. The procedure: as §2, §3
In a second experiment, Roundup® Weathermax was tank mixed with the respective benazolin salt SL 10 formulation in a 4:1 ratio by weight (w/w) based on the respective a.e. contents (in Table B5b referred to as “Ratio”) and the vial placed at 5° C. for 2 days.

Setting [9] is: free acid, temperature not printed with the values (b59 refers to 25° C.).
The mark [10] stands for this setting: benazolin salt 100 g a.e./ha in combination with 100 g a.e./ha dicamba (Clarity).
[11] abbreviates: benazolin salt 100 g a.e./ha in combination with 200 g a.e./ha dicamba (Clarity).
[12] abbreviates: benazolin salt 100 g a.e./ha in combination with 300 g a.e./ha dicamba (Clarity).

Entries after “also recorded” stand apart in the source; their conditions may differ. Read-outs that look alike come from different tables or passages of the source.

For `O=C(O)COc1ccc(Cl)cc1Cl` [2,4-D, 2,4-dichlorophenoxy)acetic acid], the vapor pressure entry in data set [1] (setting [9]) was “about 0.019 mPa”.
Take `O=C(O)Cn1c(=O)sc2cccc(Cl)c21` [Benazolin, 4-Chloro-2,3-dihydro-2-oxo-1,3-benzothiazol-3-ylacetic acid]: the vapor pressure in data set [1] (at 20° C.) is 0.0001 mPa. In data set [2], the “% Control compared to untreated ALRTE plants 21 DAA” value is listed as 40%. Also, in data set [3], the “% Control compared to untreated AMARE plants 21 DAA” value came to 25%. The “% Control compared to untreated EPHHL plants 28 DAA” value in data set [4] turned out to be 5%. The “% Control compared to untreated POROL plants 28 DAA” value in data set [5] came out at 88%.
For the compound `O=C(O)Cn1c(=O)sc2cccc(Cl)c21` [Benazolin-BAPMA], the “% Control compared to untreated plants 21 DAA CHEAL” value in data set [6] (setting [10]) stood at 50%; in data set [6] (setting [11]) it was 65%; in data set [6] (setting [12]), 67%. In addition, the “% Control compared to untreated AMARE plants 21 DAA” value in data set [3] came out at 65%. In addition, the “% Control compared to untreated plants 21 DAA AMARE” value was 35% in data set [3] (setting [10]), 50% in data set [3] (setting [11]) and 65% in data set [3] (setting [12]).
In the case of `O=C(O)Cn1c(=O)sc2cccc(Cl)c21` [Benazolin-DEA], in data set [7], the “Microscopic evaluation (crystal formation)” value is on record as “Crystal formation”, the “Microscopic evaluation (shape of crystals)” value is given as “platelets + needles” and the “Microscopic evaluation (size of crystals in μm)” value was “(20-40 μm),”.
Turning to `O=C(O)Cn1c(=O)sc2cccc(Cl)c21` [Benazolin-DGA], the “% Control compared to untreated plants 21 DAA CHEAL” value in data set [6] (setting [10]) was determined as 25%; in data set [6] (setting [11]), 65%; in data set [6] (setting [12]), 50%. The “% Control compared to untreated ALRTE plants 21 DAA” value in data set [2] is given as 44%. Moreover, the “Microscopic evaluation (crystal formation)” value in data set [8] was “Crystal formation”. In data set [8], the “Microscopic evaluation (shape of crystals)” value was “needles”. In data set [8], the “Microscopic evaluation (size of crystals in μm)” value is “(60-100 μm),”. Besides, the “% Control compared to untreated AMARE plants 21 DAA” value in data set [3] was 40%. Moreover, the “% Control compared to untreated plants 21 DAA AMARE” value was determined as 35% in data set [3] (setting [10]), 40% in data set [3] (setting [11]) and 55% in data set [3] (setting [12]). For the same compound, the “% Control compared to untreated EPHHL plants 28 DAA” value in data set [4] came out at 8%. In addition, in data set [5], the “% Control compared to untreated POROL plants 28 DAA” value came out at 50%.
Turning to `O=C([O-])Cn1c(=O)sc2cccc(Cl)c21.[K+]` [Benazolin-K], in data set [8], the “Microscopic evaluation (crystal formation)” value is “Crystal formation”, the “Microscopic evaluation (shape of crystals)” value is “platelets + needles” and the “Microscopic evaluation (size of crystals in μm)” value is “(20-50 μm),”.
Turning to `O=C(O)Cn1c(=O)sc2cccc(Cl)c21` [Benazolin-choline], the “% Control compared to untreated plants 21 DAA CHEAL” value is listed as 70% in data set [6] (setting [10]), 80% in data set [6] (setting [11]) and 85% in data set [6] (setting [12]). The “% Control compared to untreated ALRTE plants 21 DAA” value in data set [2] is reported as 48%. Moreover, the “Microscopic evaluation (crystal formation)” value in data set [8] and in data set [7] was “no crystal formation was observed; also recorded: No crystals” in each case. For the same compound, the “% Control compared to untreated AMARE plants 21 DAA” value in data set [3] turned out to be 70%. Also, the “% Control compared to untreated plants 21 DAA AMARE” value is recorded as 50% in data set [3] (setting [10]), 80% in data set [3] (setting [11]) and 75% in data set [3] (setting [12]). In data set [4], the “% Control compared to untreated EPHHL plants 28 DAA” value is 13%. In addition, the “% Control compared to untreated POROL plants 28 DAA” value in data set [5] was 100%.
Regarding `CCOC(=O)Cn1c(=O)sc2cccc(Cl)c21` [Benazolin-ethyl, Ethyl (4-chloro-2-oxo-1,3-benzothiazol-3(2H)-yl)acetate], in data set [2], the “% Control compared to untreated ALRTE plants 21 DAA” value is listed as 40%. The “% Control compared to untreated AMARE plants 21 DAA” value in data set [3] was determined as 35%. Moreover, the “% Control compared to untreated EPHHL plants 28 DAA” value in data set [4] was determined as 8%. Further, the “% Control compared to untreated POROL plants 28 DAA” value in data set [5] is on record as 88%.
Regarding `COc1c(Cl)ccc(Cl)c1C(=O)O` [Dicamba, 3,6-dichloro-2-methoxybenzoic acid], the vapor pressure in data set [1] (setting [9]) is on record as 4.5 mPa.
